Test results taken from ChEMBL document CHEMBL4616634, “4β-Hydroxywithanolide E from Goldenberry (Whole Fruits of Physalis peruviana L.) as a Promising Agent against Chronic Obstructive Pulmonary Disease” (J Nat Prod, 2020).
Active and inactive are the calls of the source.

What was measured:
[1] = test system: RAW264.7; experiment: Inhibition of LPS-induced TNFalpha protein expression in mouse RAW264.7 cells at 0.5 to 4 uM preincubated for 1 hr followed by LPS-stimulation and measured after 16 hrs by immunoblot analysis; assay type: functional, cell-based
[2] = target: T1, Nuclear factor erythroid 2-related factor 2 (Homo sapiens) (UniProt Q16236); experiment: Activation of Nrf2 in human BEAS2B cells assessed as increase in luciferase activity at 0.25 to 2 uM incubated for 18 hrs by dual luciferase reporter gene assay; assay type: cell-based
T1 sequence (whole entry): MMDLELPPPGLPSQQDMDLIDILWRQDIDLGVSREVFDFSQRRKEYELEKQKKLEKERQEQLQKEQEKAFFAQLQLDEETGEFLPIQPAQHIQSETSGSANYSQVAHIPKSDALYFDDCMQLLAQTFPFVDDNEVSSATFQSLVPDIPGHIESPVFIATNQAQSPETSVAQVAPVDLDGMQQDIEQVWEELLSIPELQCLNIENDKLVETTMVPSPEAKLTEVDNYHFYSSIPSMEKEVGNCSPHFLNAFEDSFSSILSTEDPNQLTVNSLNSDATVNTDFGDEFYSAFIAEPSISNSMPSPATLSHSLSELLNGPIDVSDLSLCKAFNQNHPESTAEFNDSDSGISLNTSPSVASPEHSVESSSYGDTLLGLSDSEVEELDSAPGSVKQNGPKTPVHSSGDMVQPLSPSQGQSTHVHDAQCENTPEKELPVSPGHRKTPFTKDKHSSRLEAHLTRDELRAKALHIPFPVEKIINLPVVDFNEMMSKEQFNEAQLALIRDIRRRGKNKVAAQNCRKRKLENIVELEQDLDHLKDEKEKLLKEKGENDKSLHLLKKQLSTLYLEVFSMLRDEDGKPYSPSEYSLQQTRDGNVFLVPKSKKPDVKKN

[3] = target: T1, Nuclear factor erythroid 2-related factor 2 (Homo sapiens); experiment: Activation of Nrf2 in human MDA-MB-231 cells assessed as increase in luciferase activity incubated for 16 hrs by dual luciferase reporter gene assay; assay type: cell-based
[4] = target: T1, Nuclear factor erythroid 2-related factor 2 (Homo sapiens); experiment: Activation of Nrf2 in human BEAS2B cells assessed as increase in Nrf2 protein expression at 1 uM incubated for 24 hrs by immunoblot analysis; assay type: cell-based
[5] = test system: Mus musculus; experiment: Antiinflammatory activity in C57BL/6 mouse model of CS-induced pulmonary injury assessed as reduction in TNFapha protein expression in lungs at 2 to 4 mg/kg, ip for 5 days by ELISA; assay type: functional, organism-based
[6] = test system: Mus musculus; experiment: Antiinflammatory activity in C57BL/6 mouse model of CS-induced pulmonary injury assessed as increase in Nrf2 protein expression in lungs at 2 to 4 mg/kg, ip for 5 days by immunoblot analysis; assay type: functional, organism-based
[7] = test system: Mus musculus; experiment: Antiinflammatory activity in C57BL/6 mouse model of CS-induced pulmonary injury assessed as reduction in IL-6 protein expression in lungs at 2 to 4 mg/kg, ip for 5 days by ELISA; assay type: functional, organism-based
[8] = target: T1, Nuclear factor erythroid 2-related factor 2 (Homo sapiens); experiment: Activation of Nrf2 in human BEAS2B cells assessed as increase in Nrf2 protein level incubated for 12 hrs by immunoblot analysis; assay type: cell-based
[9] = target: T1, Nuclear factor erythroid 2-related factor 2 (Homo sapiens); experiment: Activation of Nrf2 in human BEAS2B cells assessed as increase in NQO1 protein expression incubated for 12 hrs by immunoblot analysis; assay type: cell-based
[10] = test system: RAW264.7; experiment: Inhibition of LPS-induced COX2 mRNA expression in mouse RAW264.7 cells at 0.5 to 4 uM preincubated for 1 hr followed by LPS-stimulation and measured after 6 hrs by qRT-PCR analysis; assay type: functional, cell-based
[11] = test system: Mus musculus; experiment: Antioxidant Activity in C57BL/6 mouse model of CS-induced pulmonary injury assessed as increase in SOD level in serum at 2 to 4 mg/kg, ip for 5 days; assay type: functional, organism-based
[12] = target: T1, Nuclear factor erythroid 2-related factor 2 (Homo sapiens); experiment: Activation of Nrf2 in human BEAS2B cells harboring Keap1-C288S mutant assessed as increase in Nrf2 protein expression at 2.5 uM after12 hrs in presence of Keap1-siRNA by immunoblot analysis; assay type: cell-based
[13] = test system: Mus musculus; experiment: Antiinflammatory activity in C57BL/6 mouse model of CS-induced pulmonary injury assessed as reduction in goblet cell hyperplasia in perivascular areas in lungs at 2 to 4 mg/kg, ip for 5 days by hematoxylin and eosin staining based fluorescence microscopic analysis; assay type: functional, organism-based
[14] = species: Danio rerio; experiment: Inhibition of LPS-induced ROS generation in AB zebra fish oxidative damage model incubated for 24 hrs by DCFH-DA staining based fluorescence assay; assay type: functional, organism-based
[15] = test system: Mus musculus; experiment: Antiinflammatory activity in C57BL/6 mouse model of CS-induced pulmonary injury assessed as reduction in goblet cell hyperplasia in peribronchial in lungs at 2 to 4 mg/kg, ip for 5 days by hematoxylin and eosin staining based fluorescence microscopic analysis; assay type: functional, organism-based
[16] = test system: RAW264.7; experiment: Inhibition of LPS-induced NFkappaB activation in mouse RAW264.7 cells assessed as decrease in phosphorylated NFkappaB p65 at 0.5 to 4 uM pre-incubated for 1 hr followed by LPS-stimulation and measured after 2 hrs by immunoblot analysis; assay type: cell-based
[17] = target: T1, Nuclear factor erythroid 2-related factor 2 (Homo sapiens); experiment: Activation of Nrf2 in human BEAS2B cells harboring wild type Keap1 assessed as increase in Nrf2 protein expression at 2 uM after12 hrs in presence of Keap1-siRNA by immunoblot analysis; assay type: cell-based
[18] = target: T1, Nuclear factor erythroid 2-related factor 2 (Homo sapiens); experiment: Activation of Nrf2 in human BEAS2B cells assessed as increase in GCLM protein expression incubated for 12 hrs by immunoblot analysis; assay type: cell-based
[19] = test system: RAW264.7; experiment: Inhibition of LPS-induced IL-6 mRNA expression in mouse RAW264.7 cells at 0.5 to 4 uM preincubated for 1 hr followed by LPS-stimulation and measured after 6 hrs by qRT-PCR analysis; assay type: functional, cell-based
[20] = target: T1, Nuclear factor erythroid 2-related factor 2 (Homo sapiens); experiment: Activation of Nrf2 in human MDA-MB-231 cells assessed as increase in ARE luciferase activity at 2 uM incubated for 16 hrs by luciferase reporter gene assay; assay type: cell-based
[21] = target: T1, Nuclear factor erythroid 2-related factor 2 (Homo sapiens); experiment: Activation of Nrf2 in human BEAS2B cells assessed as increase in Keap1 mRNA expression at 0.5 to 2 uM incubated for 24 hrs by qRT-PCR analysis; assay type: cell-based
[22] = target: T1, Nuclear factor erythroid 2-related factor 2 (Homo sapiens); experiment: Activation of Nrf2 in human BEAS2B cells assessed as increase in GCLM mRNA expression at 0.5 to 2 uM incubated for 24 hrs by qRT-PCR analysis; assay type: cell-based
[23] = test system: Mus musculus; experiment: Antiinflammatory activity in C57BL/6 mouse model of CS-induced pulmonary injury assessed as decrease in NFkappaB p65 protein expression in lungs at 2 to 4 mg/kg, ip for 5 days by immunoblot analysis; assay type: functional, organism-based
[24] = target: T1, Nuclear factor erythroid 2-related factor 2 (Homo sapiens); experiment: Activation of Nrf2 in human BEAS2B cells assessed as increase in Nrf2 protein expression at 5 uM incubated for 24 hrs by immunoblot analysis; assay type: cell-based
[25] = target: T1, Nuclear factor erythroid 2-related factor 2 (Homo sapiens); experiment: Activation of Nrf2 in human BEAS2B cells assessed as increase in Nrf2 translocation in nucleus at 1 uM incubated for 6 hrs by DAPI staining based fluorescence microscopic analysis; assay type: cell-based
[26] = target: T1, Nuclear factor erythroid 2-related factor 2 (Homo sapiens); experiment: Activation of Nrf2 in human BEAS2B cells assessed as increase in NQO1 mRNA expression at 0.5 to 2 uM incubated for 24 hrs by qRT-PCR analysis; assay type: cell-based
[27] = test system: BEAS-2B; experiment: Cytotoxicity against human BEAS2B cells assessed as decrease in cell viability at < 12.5 uM after 24 hrs by MTT assay; assay type: cell-based

CC1=C(C)C(=O)O[C@H]([C@](C)(O)[C@]2(O)CC[C@@]3(O)[C@@H]4C[C@H]5O[C@]56[C@@H](O)C=CC(=O)[C@]6(C)[C@H]4CC[C@]23C)C1
inactive: Activity [4] | Activity [12] | Activity [21]
Non-Toxic: Activity [27]
active: inhibition [1] | Activity [2] | Activity [3] Dose-dependent effect | Activity [5] | Activity [6] | Activity [7] | Activity [8] Dose-dependent effect | Activity [9] Dose-dependent effect | inhibition [10] | Activity [11] | Activity [13] | inhibition [14] Dose-dependent effect | Activity [15] | inhibition [16] | Activity [17] | Activity [18] Dose-dependent effect | inhibition [19] | Activity [22] | Activity [23] | Activity [24] | Activity [25] | Activity [26]
8.5: fold change (FC) [20]
